Measured values published in ChEMBL document CHEMBL1201862, “PubChem BioAssay data set” (2004).
Calls of active or inactive are those of the source.

What was measured:
[1] = HEp-2 cell cytotoxicity, dose response, cytotoxicity control for RSV inhibitor project, HTS (AID 2410); assay type: functional; settings: human respiratory syncytial virus
[2] = inhibitors of firefly luciferase expression or activity, dose response, H4 neuroglioma cells, luminescence (AID 1990); assay type: functional, cell-based
[3] = test system: Streptococcus sp. 'group A'; assay: growth inhibition of control SK(-) GAS strain, dose response, counter-screen for streptokinase expression inhibitor project, luminescence, kanamycin, BacTiterGlo, confirmation (AID 1900); assay type: functional, organism-based
[4] = Luminescence Cell-Based Dose Response HTS to Identify Inhibitors of 5'UTR Stem-Loop Driven Prion Protein mRNA Translation in H4 Neuroglioblastoma Cells. [Related pubchem assays: 1827 (Project Summary), 1813 (Primary HTS)]; assay type: functional
Streptokinase A = molecular target: T1, Streptokinase A (Streptococcus pyogenes serotype M1, UniProt P10520); assay: S. pyogenes streptokinase expression inhibitors, potency, dose response, plasminogen activation absorbance, OD405 (AID 1914); assay type: functional, Streptococcus pyogenes M1 GAS;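 note: secreted streptokinase activity via plasminogen activation per viability signal from cell pellet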
T1 sequence (P10520 whole entry): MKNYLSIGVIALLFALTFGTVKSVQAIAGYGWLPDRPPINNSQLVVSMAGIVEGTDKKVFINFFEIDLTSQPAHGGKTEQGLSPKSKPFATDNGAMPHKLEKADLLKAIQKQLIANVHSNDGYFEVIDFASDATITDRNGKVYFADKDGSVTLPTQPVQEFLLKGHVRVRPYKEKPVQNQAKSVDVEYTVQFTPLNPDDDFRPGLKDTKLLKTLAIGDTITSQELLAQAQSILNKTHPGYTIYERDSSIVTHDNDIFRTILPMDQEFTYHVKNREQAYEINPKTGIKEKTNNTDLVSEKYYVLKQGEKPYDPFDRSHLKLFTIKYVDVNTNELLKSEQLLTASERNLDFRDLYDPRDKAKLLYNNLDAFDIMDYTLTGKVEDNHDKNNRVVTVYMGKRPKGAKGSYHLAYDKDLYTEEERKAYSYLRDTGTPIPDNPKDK

Streptococcus = assay: Group A Streptococcus viability loss, dose response, counter-screen for streptokinase expression inhibitor project, luminescence, BacTiterGlo (AID 1915); assay type: functional, organism-based;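 note: potency for reduction of bacterial viability or growth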
cells [5] = assay: cells
[6] = growth suppression of PTEN-null colon cells, dose response, cell-based, HCT116 PTEN knockout (AID 1047); assay type: functional;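 note: HCT116 colon tumor cells with PTEN knocked out; cells exposed to compound for 60 hours before readout; potency for loss of cell viability measured by luminescence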
[7] = growth suppression of beta-catenin-knockout colon cells, dose response, cell-based, HCT116, human colon tumor (AID 1045); assay type: functional;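 note: HCT116 colon tumor cells with beta catenin knocked out; cells exposed to compound for 60 hours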
cells [8] = assay type: functional, cell-based
cells [9] = assay type: functional, cell-based; remark: listed apart in the source
[10] = THP-1 cell cytotoxicity, dose response, cytotoxicity control for non-replicating M. tuberculosis project (AID 489025); assay type: functional
INS1 = assay: beta cell apoptosis inhibitors, cytokine rescue, dose response, luminescence, retest (AID 449756); assay type: functional, cell-based; settings: Rattus norvegicus;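 note: cell death triggered by IL-1 beta plus TNF-alpha plus IFN-gamma mixture; protective hits raise ATP signal compared with cytokine alone wells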
cells [11] = assay type: functional
[12] = A cytotoxicity screen of small molecule inhibitors of the PhoP region in Salmonella typhi identified in the primary screen. [Related pubchem assays: 1850, 1864, 1985 ]; assay type: functional
[13] = inhibitors of SNCA 5'UTR-driven reporter translation, confirmation, H4 neuroglioma cells, luminescence (AID 1988); assay type: functional, cell-based
[14] = molecular target: T2, DNA repair and recombination protein RAD54-like (Homo sapiens, UniProt Q92698); assay: inhibitors of human RAD54 branch migration, confirmation, biochemical, fluorescence, cherry-picked samples, dose series (AID 651657); assay type: functional
T2 sequence (Q92698 whole entry): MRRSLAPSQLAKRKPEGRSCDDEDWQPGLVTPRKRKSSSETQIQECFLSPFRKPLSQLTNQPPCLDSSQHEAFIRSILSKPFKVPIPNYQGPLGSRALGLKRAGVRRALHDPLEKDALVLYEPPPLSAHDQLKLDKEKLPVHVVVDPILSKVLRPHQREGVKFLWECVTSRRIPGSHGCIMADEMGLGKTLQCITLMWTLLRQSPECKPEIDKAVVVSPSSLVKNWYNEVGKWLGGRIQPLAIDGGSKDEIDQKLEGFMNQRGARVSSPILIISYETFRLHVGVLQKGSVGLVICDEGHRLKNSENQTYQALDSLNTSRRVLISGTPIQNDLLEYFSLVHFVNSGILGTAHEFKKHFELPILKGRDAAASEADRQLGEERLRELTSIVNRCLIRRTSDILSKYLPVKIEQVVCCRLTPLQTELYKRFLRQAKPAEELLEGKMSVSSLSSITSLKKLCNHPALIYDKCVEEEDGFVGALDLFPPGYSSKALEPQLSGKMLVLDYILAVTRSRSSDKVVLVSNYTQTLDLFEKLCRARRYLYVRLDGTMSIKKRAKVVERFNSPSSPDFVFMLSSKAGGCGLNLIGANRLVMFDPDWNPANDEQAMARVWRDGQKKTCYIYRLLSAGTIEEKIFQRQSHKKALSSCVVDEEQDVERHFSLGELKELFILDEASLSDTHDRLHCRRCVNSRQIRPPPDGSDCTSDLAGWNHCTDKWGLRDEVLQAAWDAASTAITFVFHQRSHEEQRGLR

[15] = molecular target: T3, RNA-binding protein pos-1 (Caenorhabditis elegans, UniProt G5EF15); assay: inhibitors of POS-1/mex-3 RNA binding, dose response, biochemical, fluorescence polarization (AID 1964);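 note: purified POS-1 fused to maltose binding protein made in E. coli; potency of compounds blocking POS-1 binding to fluorescent RNA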
T3 sequence (G5EF15 whole entry): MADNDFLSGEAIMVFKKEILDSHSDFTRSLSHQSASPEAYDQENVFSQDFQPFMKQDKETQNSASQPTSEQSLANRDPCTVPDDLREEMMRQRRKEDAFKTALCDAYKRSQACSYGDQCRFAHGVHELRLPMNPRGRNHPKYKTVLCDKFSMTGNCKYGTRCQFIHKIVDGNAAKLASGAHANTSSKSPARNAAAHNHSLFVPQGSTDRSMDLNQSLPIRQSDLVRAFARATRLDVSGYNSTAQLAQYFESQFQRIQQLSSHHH

[16] = ZM109 Env clade C HIV-1 fusion inhibitors, dose response, HeLa effector, CEM target cells, luciferase, cherry-pick (AID 652058); assay type: functional, cell-based
[17] = molecular target: T4, Heat shock factor protein 1 (Mus musculus, UniProt P38532); assay: HSF1 potentiators in luciferase reporter cells, confirmation, cell-based, NIH3T3, luminescence, dose retest (AID 435004); assay type: functional;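 note: stress induced by proteasome inhibitor MG132 added 30 min after compound; luciferase reporter driven by HSF1 response element in NIH3T3 cells; actives raise luminescence as potentiators of the MG132 stress response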
T4 sequence (P38532 whole entry): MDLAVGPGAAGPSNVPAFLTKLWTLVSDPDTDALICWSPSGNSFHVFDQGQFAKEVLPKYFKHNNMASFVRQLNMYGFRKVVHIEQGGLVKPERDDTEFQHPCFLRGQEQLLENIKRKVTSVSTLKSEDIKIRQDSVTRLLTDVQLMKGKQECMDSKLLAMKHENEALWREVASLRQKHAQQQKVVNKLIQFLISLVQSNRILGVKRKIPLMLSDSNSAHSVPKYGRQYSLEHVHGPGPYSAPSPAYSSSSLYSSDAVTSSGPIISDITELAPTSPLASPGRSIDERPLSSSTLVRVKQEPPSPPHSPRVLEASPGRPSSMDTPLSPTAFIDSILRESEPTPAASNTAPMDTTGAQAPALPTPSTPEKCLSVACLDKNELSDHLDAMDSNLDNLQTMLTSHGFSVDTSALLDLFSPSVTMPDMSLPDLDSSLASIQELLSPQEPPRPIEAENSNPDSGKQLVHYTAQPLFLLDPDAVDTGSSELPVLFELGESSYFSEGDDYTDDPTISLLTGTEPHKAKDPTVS

Protein skinhead-1 = molecular target: T5, Protein skinhead-1 (Caenorhabditis elegans, UniProt P34707); assay type: functional
T5 sequence (P34707 whole entry): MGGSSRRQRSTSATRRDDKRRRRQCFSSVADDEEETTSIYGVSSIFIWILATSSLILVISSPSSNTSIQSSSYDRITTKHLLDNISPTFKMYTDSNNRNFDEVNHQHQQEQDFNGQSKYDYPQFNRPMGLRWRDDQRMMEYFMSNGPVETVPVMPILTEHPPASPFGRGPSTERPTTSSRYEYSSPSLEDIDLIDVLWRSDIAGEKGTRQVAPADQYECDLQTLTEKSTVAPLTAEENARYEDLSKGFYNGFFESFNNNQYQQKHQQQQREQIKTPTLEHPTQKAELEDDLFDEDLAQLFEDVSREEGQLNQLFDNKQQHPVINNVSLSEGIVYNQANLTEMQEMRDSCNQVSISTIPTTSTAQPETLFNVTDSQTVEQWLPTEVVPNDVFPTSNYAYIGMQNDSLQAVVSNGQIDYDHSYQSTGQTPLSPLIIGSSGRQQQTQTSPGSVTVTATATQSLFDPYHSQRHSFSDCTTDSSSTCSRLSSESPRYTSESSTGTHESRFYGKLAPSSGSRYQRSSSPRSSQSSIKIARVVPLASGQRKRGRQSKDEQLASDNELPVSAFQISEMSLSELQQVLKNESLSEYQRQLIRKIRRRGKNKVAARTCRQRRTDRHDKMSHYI

Structure (SMILES): CCc1nc(SCC(=O)N2c3ccccc3CC2C)c2c(C)c(C)sc2n1 (stereo not given)
- CC50 [1]: 5.39 µM (active)
- EC50 [2]: > 120 µM (not active)
- EC50 [3]: 13.8 µM (active)
- EC50 [4]: 18 µM (active)
- EC50 (Streptokinase A): 57.8 µM (active)
- EC50 (Streptococcus): > 150 µM (not active)
- IC50 (cells [5]): 3.55 µM (active)

Structure (SMILES): CCCCN(CC)S(=O)(=O)c1ccc(C(=O)/N=c2\sc3cc(NC(C)=O)ccc3n2C)cc1
- EC50 [6]: 17.1 µM (active)
- EC50 [7]: 10.2 µM (active)

Structure (SMILES): O=C(CSc1nnc(-c2ccccc2Cl)o1)N1CCOCC1
- EC50 (cells [8]): > 350 µM (not active)
- EC50 (cells [9]): > 350 µM (not active)

Structure (SMILES): CC(=O)Oc1ccc(N(C(C)=O)S(=O)(=O)c2cccs2)c2ccccc12
- CC50 [10]: 26.1 µM (active)
- AC50 (INS1): 8.83 µM (active)

Structure (SMILES): Cc1occc1C(=O)NC1CCCCCC1
- EC50 (cells [8]): > 350 µM (not active)
- EC50 (cells [9]): 73 µM (active)

Structure (SMILES): O=[N+]([O-])c1ccc(CNc2cccc(Cl)c2)s1
- CC50 [10]: > 40 µM (active)
- IC50 (cells [11]): 48.6 µM (active)

Structure (SMILES): COc1ccc(Cn2c(=N)c(C(=O)NCC3CCCO3)cc3c(=O)n4ccccc4nc32)cc1 (stereo not given)
- EC50 [12]: > 50 µM (active)

Structure (SMILES): NC(=O)c1c(NC(=O)CSc2nc(N)cc(O)n2)sc2c1CCCC2
- EC50 [12]: > 50 µM (active)

Structure (SMILES): O=C(N/N=C/c1cccnc1)c1ccc([N+](=O)[O-])cc1Cl
- EC50 [12]: > 50 µM (active)

Structure (SMILES): COc1cccc(C(=O)SC2=NCCS2)c1
- EC50 (cells [8]): > 350 µM (not active)
- EC50 (cells [9]): 55.8 µM (active)

Structure (SMILES): COC(=O)C1=C(C)N(Cc2ccco2)C(=O)N[C@H]1c1cccc(C(F)(F)F)c1
- CC50 [1]: 25.6 µM (active)
- IC50 (cells [5]): 1.47 µM (active)

Structure (SMILES): COc1ccc(C(=O)CN2CCN(CCN3C(=O)c4cccc5cccc(c45)C3=O)CC2)cc1
- EC50 [2]: 13.4 µM (active)
- EC50 [4]: > 120 µM (not active)
- EC50 [13]: 15.3 µM (active)
- AC50 [14]: 8.03 µM (active)

Structure (SMILES): Cc1nc(C)c(-c2ccc(SCc3ccccc3F)nn2)s1
- EC50 [12]: > 50 µM (active)

Structure (SMILES): COc1ccc(S(=O)(=O)N2CCOC2CNC(=O)C(=O)NCc2ccc3c(c2)OCO3)cc1OC (stereo not given)
- EC50 (cells [8]): > 350 µM (not active)
- EC50 (cells [9]): > 350 µM (not active)

Structure (SMILES): CCOC(=O)c1c(C)[nH]c(C(=O)OCC(=O)Nc2cc(C)c(Cl)cc2OC)c1C
- EC50 [6]: 12.8 µM (active)
- EC50 [7]: 16.2 µM (active)

Structure (SMILES): COC(=O)C1=C(C)N(Cc2ccc(OC)cc2)C(=O)C1
- EC50 (cells [8]): > 350 µM (not active)
- EC50 (cells [9]): > 350 µM (not active)

Structure (SMILES): CN(C)c1ccc(NC(=O)/C=C/c2c(Cl)cccc2Cl)cc1
- CC50 [1]: 17.3 µM (active)
- IC50 (cells [5]): 10.2 µM (active)

Structure (SMILES): O=C(NNC(=O)c1cc(Cl)ccc1[N+](=O)[O-])c1csc(N2CCOCC2)n1
- EC50 [15]: > 300 µM (inconclusive)

Structure (SMILES): COc1cccc(S(=O)(=O)N[C@@H]2CC[C@H](CCN)O[C@H]2CO)c1
- AC50 [16]: 1.26 µM (active)

Structure (SMILES): N=C(NOS(=O)(=O)c1ccccc1)c1cccnc1
- EC50 [12]: > 50 µM (active)

Structure (SMILES): Cc1ccc(S/C=C\C(=O)c2ccccc2)cc1
- EC50 [6]: 98.5 µM (active)
- EC50 [7]: 33.1 µM (active)
- EC50 [17]: 8.81 µM (active)
- IC50 (Protein skinhead-1): 32.9 µM (active)

Structure (SMILES): Cc1cccc(NS(=O)(=O)c2ccc(C)c(C(=O)OCC(=O)Nc3cc(C)on3)c2)c1
- CC50 [1]: 23.9 µM (active)
- EC50 [2]: 41.1 µM (active)
- EC50 [4]: > 120 µM (not active)
- EC50 [13]: 28.1 µM (active)
- IC50 (cells [5]): 30.8 µM (active)

Structure (SMILES): CCOC(=O)c1cc(-c2ccncc2)nc2c1c(C)nn2-c1ccccn1
- EC50 [12]: > 50 µM (active)
- AC50 [14]: 30.4 µM (active)

Structure (SMILES): CCCCNC(=O)CCn1c(=O)c2ccccc2n(Cc2ccc(Cl)cc2)c1=O
- EC50 [6]: 18 µM (active)
- EC50 [7]: 19.5 µM (active)

Structure (SMILES): O=C(N/N=C/C(Br)=C/c1ccccc1)c1ccncc1
- CC50 [10]: > 40 µM (active)
- IC50 (cells [11]): 0.61 µM (active)
